According to patent publication US7435721B2, “Transport peptides such as C-terminal Erns peptide and analogues thereof” (Pepscan Systems B.V., priority 2000, dated 2008):
Converted amounts (≈) assume the structure as drawn. Read-outs that look alike come from different tables or passages of the source. Residues, ends and D or L forms follow the SMILES beside them. *: point of attachment. Biotin = O=C1N[C@H]2[C@H](CS[C@H]2CCCCC(=O)*)N1

Key:
Format in all cases: cell-based
[1] = system: Escherichia coli ATCC 25922; assay: Antimicrobial assay (MIC), E. coli; settings: for MIC (minimal inhibitory concentration needed to inhibit bacterial growth): overnight at 37° C.
Description: Antimicrobial assay. Two bacterial strains (Escherichia coli ATCC 25922 and Enterococcus faecalis ATCC 29212) were inoculated on heart infusion agar with 5% sheep blood and incubated aerobically overnight at 37° C. From the pure cultures, suspensions were made in saline to a density of 0.5 McFarland. These suspensions were diluted ten-fold in Mueller Hinton II broth, resulting in a final inoculum of approximately 10^7 cfu/ml.
Standard 96-well microtiter trays were filled with 100 ill of two-fold dilutions of peptide in physiologic salt solution in each well, resulting in the following concentration range: 4000, 2000, 1000, 500, 250, 125, 62.25, 31.63, 15.82, 7.96 and 0 μg/ml. The trays in column 12 were filled with 200 μl MH II broth (negative control).
Columns 1-11 of the microtiter trays were filled with 100 μl of the final inoculum of the bacterial suspensions, thus diluting the concentrations of the peptide two fold, resulting in the following peptide concentration range in the wells: 2000, 1000, 500, 250, 125, 62.25, 31.63, 15.82, 7.96, 3.98 and 0 μg/ml. In rows B, C and D, 100 μl of the final inoculum of E. coli and, in rows E, F and G, 100 μl of the final inoculum of E. faecalis was pipetted. The final bacterial concentration was approximately 5×10^5 cfu/well. All trays were sealed and incubated overnight at 37° C. After incubation, the microtiter trays were inspected visually for bacterial growth and the absorbance of the cultures at 630 nm (A630) was determined with an ELISA-reader. […] The experiment was performed independently in triplicate. The test was repeated again in triplicate after two days with the final peptide concentration range in the wells: 5000, 2500, 1250, 625, 312.5, 156.25, 78.12, 39.06, 19.58, 9.79, 4.88, 2.44 and 1.22 μg/ml.

guinea pig erythrocytes = assay: Hemolytic assay, guinea pig erythrocytes; settings: 1% v/v, one hour at 37° C.
Description: Hemolytic assay. Hemolytic activity of various peptide concentrations was determined by incubation with human, guinea pig or sheep erythrocyte suspensions (final erythrocyte concentration, 1% v/v) for one hour at 37° C. After cooling and centrifugation, the optical density of the supernatants were measured at 540 nm. Peptide concentrations causing 50% hemolysis (EC50) were derived from the dose-response curves.

[2] = system: live cells in suspension or subconfluent monolayers

Row | Compound | MIC (minimal inhibitory concentration needed to inhibit bacterial growth) [1] | Hemolysis (peptide concentration causing 50% hemolysis) (guinea pig erythrocytes) | further results
1 | CC[C@H](C)[C@H](NC(=O)[C@H](CCCNC(=N)N)NC(=O)[C@H](CC(C)C)NC(=O)[C@H](CCC(N)=O)NC(=O)[C@H](CCCNC(=N)N)NC(=O)CNC(=O)[C@H](CC(C)C)NC(=O)[C@H](Cc1c[nH]c2ccccc12)NC(=O)[C@H](CO)NC(=O)[C@@H](NC(=O)[C@@H](NC(=O)[C@H](CCCNC(=N)N)NC(=O)[C@H](C)NC(=O)[C@H](C)NC(=O)CNC(=O)[C@H](CCC(N)=O)NC(=O)[C@H](CCCNC(=N)N)NC(=O)[C@H](C)NC(=O)[C@H](CC(N)=O)NC(=O)[C@H](CCC(=O)O)NC(=O)[C@@H](NC(=O)[C@@H](NC(=O)[C@H](CC(N)=O)NC(=O)[C@@H](NC(=O)[C@H](CCSC)NC(=O)CNC(=O)[C@H](CC(=O)O)NC(=O)[C@H](CC(C)C)NC(=O)[C@H](CC(C)C)NC(=O)[C@H](Cc1ccc(O)cc1)NC(=O)[C@H](CC(C)C)NC(=O)[C@H](C)NC(=O)[C@@H](NC(=O)[C@H](CC(=O)O)NC(=O)CCCC[C@@H]1SC[C@@H]2NC(=O)N[C@@H]21)[C@@H](C)O)[C@@H](C)O)[C@@H](C)O)[C@@H](C)CC)C(C)C)[C@@H](C)O)C(=O)N[C@@H](C)C(=O)NCC(=O)N[C@@H](CCCCN)C(=O)N[C@@H](CCCNC(=N)N)C(=O)N[C@@H](CC(C)C)C(=O)N[C@@H](CCC(=O)O)C(N)=O [177-216] | 224 µg/mL (≈ 47.8 µM) | 0.23 mg/mL | 
2 | CC(C)C[C@H](NC(=O)[C@H](CCC(N)=O)NC(=O)[C@H](CCCCN)NC(=O)CNC(=O)[C@H](CC(C)C)NC(=O)[C@H](Cc1c[nH]c2ccccc12)NC(=O)[C@@H](NC(=O)[C@@H](NC(=O)[C@H](CC(C)C)NC(=O)[C@H](CCCCN)NC(=O)[C@H](C)NC(=O)[C@@H](NC(=O)CNC(=O)[C@H](CCC(N)=O)NC(=O)[C@H](CCCNC(=N)N)NC(=O)[C@H](C)NC(=O)CNC(=O)[C@H](CCC(=O)O)NC(=O)CCCC[C@@H]1SC[C@@H]2NC(=O)N[C@@H]21)[C@@H](C)O)[C@@H](C)O)[C@@H](C)O)C(=O)NCC(=O)N[C@H](C(=O)N[C@@H](C)C(=O)NCC(=O)N[C@@H](CCCCN)C(=O)N[C@@H](CCCCN)C(=O)N[C@@H](CC(C)C)C(=O)N[C@@H](CCC(=O)O)C(=O)N[C@@H](CC(N)=O)C(=O)N[C@@H](CCCCN)C(=O)N[C@@H](CO)C(=O)N[C@@H](CCCCN)C(=O)N[C@H](C(=O)N[C@@H](Cc1c[nH]c2ccccc12)C(=O)N[C@@H](Cc1ccccc1)C(=O)NCC(=O)N[C@@H](C)C(=O)N[C@@H](Cc1ccc(O)cc1)C(=O)N[C@@H](C)C(N)=O)[C@@H](C)O)[C@@H](C)O [194-230] (Biotin-EGARQGTAKLTTWLGKQLGTAGKKLENKSKTWFGAYA-NH2) | 93 µg/mL (≈ 22 µM) | 0.25 mg/mL | 
3 | CC[C@H](C)[C@H](NC(=O)[C@H](CC(C)C)NC(=O)[C@H](CCCCN)NC(=O)CNC(=O)[C@H](CC(N)=O)NC(=O)CNC(=O)CCCC[C@@H]1SC[C@@H]2NC(=O)N[C@@H]21)C(=O)N[C@@H](CCCCN)C(=O)NCC(=O)N[C@@H](CCCNC(=N)N)C(=O)N[C@H](C(=O)N1CCC[C@H]1C(=O)N[C@H](C(=O)N[C@@H](CCCCN)C(=O)N[C@@H](Cc1ccccc1)C(=O)NCC(=O)N[C@@H](CCCCN)C(=O)N[C@@H](C)C(=O)N[C@@H](CC(=O)O)C(=O)N[C@@H](CS)C(=O)N[C@@H](CC(=O)O)C(=O)N[C@@H](CCCNC(=N)N)C(=O)N1CCC[C@H]1C(=O)N1CCC[C@H]1C(=O)N[C@@H](CCCCN)C(=O)N[C@@H](Cc1c[nH]cn1)C(=O)N[C@@H](CO)C(=O)N[C@@H](CCC(N)=O)C(=O)N[C@@H](CC(N)=O)C(=O)NCC(=O)N[C@@H](CCSC)C(=O)NCC(=O)N[C@@H](CCCCN)C(N)=O)[C@@H](C)CC)[C@@H](C)O [L3 loop 59-88] (Biotin-GNGKLIKGRTPIKFGKADCDRPPKHSQNGMGK-NH2) | >500 µg/mL |  | Antibacterial activity (in words) [1]: no antibacterial activity; Translocation activity (in words) [2]: showed translocation activity; Concentration (translocation activity), mapping of restrictocin L3 loop ([2]; Table 10): 1.0 µM
4 | CC[C@H](C)[C@H](NC(=O)[C@H](CCCNC(=N)N)NC(=O)[C@H](CC(C)C)NC(=O)[C@H](CCC(N)=O)NC(=O)[C@H](CCCNC(=N)N)NC(=O)CNC(=O)[C@H](CC(C)C)NC(=O)[C@H](Cc1c[nH]c2ccccc12)NC(=O)[C@H](CO)NC(=O)[C@@H](NC(=O)[C@@H](NC(=O)[C@H](CCCNC(=N)N)NC(=O)[C@H](C)NC(=O)[C@H](C)NC(=O)CNC(=O)[C@H](CCC(N)=O)NC(=O)[C@H](CCCNC(=N)N)NC(=O)[C@H](C)NC(=O)[C@H](CC(N)=O)NC(=O)[C@H](CCC(=O)O)NC(=O)CCCC[C@@H]1SC[C@@H]2NC(=O)N[C@@H]21)C(C)C)[C@@H](C)O)C(=O)N[C@@H](C)C(=O)NCC(=O)N[C@@H](CCCCN)C(=O)N[C@@H](CCCNC(=N)N)C(=O)N[C@@H](CC(C)C)C(=O)N[C@@H](CCC(=O)O)C(=O)NCC(=O)N[C@@H](CCCNC(=N)N)C(=O)N[C@@H](CO)C(=O)N[C@@H](CCCCN)C(=O)N[C@H](C(=O)N[C@@H](Cc1c[nH]c2ccccc12)C(=O)N[C@@H](Cc1ccccc1)C(N)=O)[C@@H](C)O [191-223] | 41 µg/mL (≈ 10.2 µM) | 0.15 mg/mL | 
5 | CC[C@H](C)[C@H](NC(=O)[C@H](CCCNC(=N)N)NC(=O)[C@H](CC(C)C)NC(=O)[C@H](CCC(N)=O)NC(=O)[C@H](CCCNC(=N)N)NC(=O)CNC(=O)[C@H](CC(C)C)NC(=O)[C@H](Cc1c[nH]c2ccccc12)NC(=O)[C@H](CO)NC(=O)[C@@H](NC(=O)[C@@H](NC(=O)[C@H](CCCNC(=N)N)NC(=O)[C@H](C)NC(=O)[C@H](C)NC(=O)CNC(=O)[C@H](CCC(N)=O)NC(=O)[C@H](CCCNC(=N)N)NC(=O)[C@H](C)NC(=O)[C@H](CC(N)=O)NC(=O)[C@H](CCC(=O)O)NC(=O)CCCC[C@@H]1SC[C@@H]2NC(=O)N[C@@H]21)C(C)C)[C@@H](C)O)C(=O)N[C@@H](C)C(=O)NCC(=O)N[C@@H](CCCCN)C(=O)N[C@@H](CCCNC(=N)N)C(=O)N[C@@H](CC(C)C)C(=O)N[C@@H](CCC(=O)O)C(N)=O [191-216] | 95 µg/mL (≈ 30 µM) | >0.33 mg/mL | 
6 | CC[C@H](C)[C@H](NC(=O)[C@H](CCCNC(=N)N)NC(=O)[C@H](CC(C)C)NC(=O)[C@H](CCC(N)=O)NC(=O)[C@H](CCCNC(=N)N)NC(=O)CNC(=O)[C@H](CC(C)C)NC(=O)[C@H](Cc1c[nH]c2ccccc12)NC(=O)[C@H](CO)NC(=O)CCCC[C@@H]1SC[C@@H]2NC(=O)N[C@@H]21)C(=O)N[C@@H](C)C(=O)NCC(=O)N[C@@H](CCCCN)C(=O)N[C@@H](CCCNC(=N)N)C(=O)N[C@@H](CC(C)C)C(=O)N[C@@H](CCC(=O)O)C(=O)NCC(=O)N[C@@H](CCCNC(=N)N)C(=O)N[C@@H](CO)C(=O)N[C@@H](CCCCN)C(N)=O [202-220] | 179 µg/mL (≈ 73.5 µM) | >0.33 mg/mL | 
7 | CC[C@H](C)[C@H](NC(=O)[C@H](CCCNC(=N)N)NC(=O)[C@H](CC(C)C)NC(=O)[C@H](CCC(N)=O)NC(=O)[C@H](CCCNC(=N)N)NC(=O)CNC(=O)[C@H](CC(C)C)NC(=O)[C@H](Cc1c[nH]c2ccccc12)NC(=O)[C@H](CO)NC(=O)[C@@H](NC(=O)[C@@H](NC(=O)[C@H](CCCNC(=N)N)NC(=O)[C@H](C)NC(=O)[C@H](C)NC(=O)CNC(=O)[C@H](CCC(N)=O)NC(=O)[C@H](CCCNC(=N)N)NC(=O)[C@H](C)NC(=O)[C@H](CC(N)=O)NC(=O)[C@H](CCC(=O)O)NC(=O)CCCC[C@@H]1SC[C@@H]2NC(=O)N[C@@H]21)C(C)C)[C@@H](C)O)C(=O)N[C@@H](C)C(N)=O [191-211] | 395 µg/mL (≈ 153 µM) | >0.33 mg/mL | 
8 | Biotin-RQLRIAGRRLRGRSR-NH2 [MDM-28] |  |  | Concentration (translocation activity), optimization of E^rns peptide [2]: 0.1 µM
9 | Rhodamine-GRQLRIAGRRLRGRSR-NH2 [A931] |  |  | Concentration (translocation activity), optimization of E^rns peptide ([2]; Table 9, lower concentration = higher translocation activity): 3.0 µM
10 | Biotin-KLIKGRTPIKFGKADCDRPPKHSQNGK-NH2 |  |  | Concentration (translocation activity), mapping of restrictocin L3 loop [2]: 0.3 µM
11 | Biotin-RRRERRAEK-NH2 |  |  | Concentration (translocation activity of transport peptides) [2]: 1.0 µM
